Converted amounts (≈) assume the structure as drawn.
Columns and labels:
C. glabrata 61L = test: In vitro antifungal activity, microbroth dilution (MIC); type: cell-based; conditions: Nakaseomyces glabratus; C. glabrata 61L; 35 °C, 24 h; read-out: MIC
Method: (§1) The in vitro antifungal screening results of synthesized compounds was evaluated against three fungal strains: C. parapsilosis ATCC 22019, C. utilis 84, and C. glabrata 61L are summarized in Table 1.
(§2) The in vitro antifungal activity of the target compounds was measured by means of the minimal inhibitory concentrations (MIC) with fluconazole as the control drug. Procedure was carried out by the microbroth dilution method in 96-well plates according to the recommendations of the Clinical and Laboratory Standards Institute. The detailed information was reported previously. The investigated pathogenic species included C. parapsilosis ATCC 22019, C. utilis 84 and C. glabrata 61. The sensitivity was evaluated visually, after the incubation at 35 °C for 24 h and the value was compared with the growth density in the reference culture without the sample. Each test was conducted in triplicate.

[1] = tested on: C. parapsilosis ATCC 22019; test: as above; type: cell-based; conditions: C. parapsilosis ATCC 22019
Method: as §1, §2

C. utilis 84 = test: as above; type: cell-based; conditions: C. utilis 84
Method: as §1, §2

[2] = Partition in system 1-octanol/buffer pH 7.4, shake-flask method; type: physicochemical; conditions: for logP at 2 days / logD at 2 days: 1-octanol/buffer pH 7.4, pH 7.4, 1-octanol/buffer pH 7.4; for logP at 2 days: from concentrations in mole fraction; for logD at 2 days / logPo/b: from concentrations in mol∙L^−1; for sb × 10^5 (concentration in buffer) / so × 10^3 (concentration in 1-octanol) / xb × 10^7 (mole fraction in buffer) / xo × 10^4 (mole fraction in 1-octanol) / logPo/b: 1-octanol/buffer pH 7.4
Method: The partition coefficients of the new hybrid compounds in the model system 1-octanol/buffer pH 7.4 as a lipophilicity surrogate were determined experimentally. […] It is the lipophilic properties that allow the hybrids to move from the water phase to the less hydrophilic octanol phase, where the solute–solvent intermolecular interactions are more favourable. According to the results shown in Table 5, the order of changes in the partition coefficients logPo/b at T = 298.15 K, depending on the substituent nature, is expressed as the inequality: Cl- (1.65) < F- (2.40) < CH3- (2.50). Compounds I and II are the most lipophilic in the series of the studied substances, whereas the introduction of a chlorine atom considerably lowers the partition coefficient (~0.8 log units). This fact agrees with the common concept that lipophilic groups are usually hydrocarbon or fluorine-containing radicals. […] For drugs with such partition coefficients, there is a good balance between the solubility and permeability through passive diffusion and minimum metabolism due to the low binding capacity with enzymes.
The octanol/buffer pH 7.4 partition coefficient logPO/B is measured in a static mode using the shake-flask method. The procedure has been presented as standard in the Organization for Economic Cooperation and Development (OECD) guidelines for testing chemicals. The equipment described above was also used for the determination of the 1-octanol/water partition coefficients. […] The correctness of the obtained value of each compound was verified by checking the mass balance of the starting amount of the compound and the total amount of the compound partitioned between the two phases.
To aim evaluated transfer (partition) thermodynamic functions, the 1-octanol/buffer partition coefficients P^* o/b as the ratio of equilibrium concentrations in the organic (xo) and aqueous phases (xb) expressed in mole fractions were calculated: P* o/b = xo/xb(12)

[3] = Thermodynamic functions of transfer 1-octanol/buffer pH 7.4; type: physicochemical; conditions: 298.15 K
Method: The temperature variation of the partition coefficient provides enthalpic and entropic contributions to the free energy of transfer. The thermodynamic transfer functions for hybrids I–III in the 1-octanol/buffer pH 7.4 system were calculated by Equations (12)–(16) and are summarized in Table 6. The standard Gibbs energy values for all the compounds are negative. Therefore, the transfer from the aqueous medium to the organic phase within the studied temperature range is thermodynamically favourable and spontaneous. The standard transfer enthalpies of all the studied compounds are positive, which means the process is endothermic. Energy is consumed during the transfer to overcome the hydrophobic effects in water (destruction of the molecule solvate shell structure), destruction of the solvent–solute interactions in the aqueous medium and creation of a cavity in the organic phase where the solute molecules can enter.
The standard change in Gibbs free energy of transfer (∆trG^o) from the buffer to the organic phase was calculated by Equation (14):∆trG^o = −RTlnP*o/b(14)
The standard change entropy of transfer (∆trS^o) is determined as follows:∆trS^o = (∆trH^o − ∆trG^o)/T(15)

[4] = Apparent thermodynamic functions of dissolution (van't Hoff); type: physicochemical; conditions: Thm = 302.98 K
Text: The dissolution of the new hybrids was characterized based on apparent thermodynamic parameters obtained from temperature dependences of solubility of the studied compounds in the selected solvents (Figure 6). […] The van’t Hoff enthalpy of dissolution can be expressed as the inclination of a tangent to a solubility curve plotted as lnx vs. (1/T − 1/Thm) by Equation (6): (6) ΔHsolo=−R(∂lnx/∂(1/T−1/Thm))=−R⋅slope where R = 8.314 J⋅K^−1·mol^−1 is the universal gas constant. Thm = 302.98 K denotes the mean harmonic temperature, which was calculated by Equation (7):(7) Thm=n/∑i=1n1/Ti where n represented the number of experimental temperatures. The apparent standard Gibbs energy was evaluated by Equation (8):(8) ΔGsolo=−RThm×intersept
The apparent standard solution entropies were obtained from the well-known relationship:(9) ΔSsolo=ΔHsolo−ΔGsolo/Thm
The calculated apparent thermodynamic solubility functions of dissolution (Gibbs energy, enthalpy, and entropy) at standard temperature 298.15 K for hybrid compounds were collected in Table 4.

- MIC (C. glabrata 61L): 4 µg/mL (≈ 6.22 µM)
- MIC ([1]; Lodderomyces parapsilosis, ATCC22019, 35 °C, 24 h, read-out: MIC): 0.1 µg/mL (≈ 0.156 µM)
- MIC (C. utilis 84; Williopsis jadinii, 35 °C, 24 h, read-out: MIC): 1 µg/mL (≈ 1.56 µM)
- logP at 2 days ([2]; 293.15 K): 3.3
- logD at 2 days ([2]; 293.15 K): 2.36
- logP at 2 days ([2]; 298.15 K): 3.34
- logP at 2 days ([2]; 303.15 K): 3.37
- logD at 2 days ([2]; 303.15 K): 2.43
- logP at 2 days ([2]; 308.15 K): 3.41
- logP at 2 days ([2]; 313.15 K): 3.45
- logD at 2 days ([2]; 313.15 K): 2.5
- sb × 10^5 (concentration in buffer) ([2]; 293.15 K): 1.47 mol∙L^−1 (printed as sb × 10^5
- so × 10^3 (concentration in 1-octanol) ([2]; 293.15 K): 3.39 mol∙L^−1 (printed as so × 10^3
- xb × 10^7 (mole fraction in buffer) ([2]; 293.15 K): 2.67 mole fraction (printed as xb ×
- xo × 10^4 (mole fraction in 1-octanol) ([2]; 293.15 K): 5.34 mole fraction (printed as xo ×
- sb × 10^5 (concentration in buffer) ([2]; 298.15 K): 1.35 mol∙L^−1 (printed as sb × 10^5
- so × 10^3 (concentration in 1-octanol) ([2]; 298.15 K): 3.39 mol∙L^−1 (printed as so × 10^3
- xb × 10^7 (mole fraction in buffer) ([2]; 298.15 K): 2.45 mole fraction (printed as xb ×
- xo × 10^4 (mole fraction in 1-octanol) ([2]; 298.15 K): 5.37 mole fraction (printed as xo ×
- logPo/b ([2]; 298.15 K): 2.40
- sb × 10^5 (concentration in buffer) ([2]; 303.15 K): 1.25 mol∙L^−1 (printed as sb × 10^5
- so × 10^3 (concentration in 1-octanol) ([2]; 303.15 K): 3.39 mol∙L^−1 (printed as so × 10^3
- xo × 10^4 (mole fraction in 1-octanol) ([2]; 303.15 K): 5.39 mole fraction (printed as xo ×
- sb × 10^5 (concentration in buffer) ([2]; 308.15 K): 1.15 mol∙L^−1 (printed as sb × 10^5
- so × 10^3 (concentration in 1-octanol) ([2]; 308.15 K): 3.39 mol∙L^−1 (printed as so × 10^3
- xb × 10^7 (mole fraction in buffer) ([2]; 308.15 K): 2.08 mole fraction (printed as xb ×
- xo × 10^4 (mole fraction in 1-octanol) ([2]; 308.15 K): 5.42 mole fraction (printed as xo ×
- logPo/b ([2]; 308.15 K): 2.47
- sb × 10^5 (concentration in buffer) ([2]; 313.15 K): 1.06 mol∙L^−1 (printed as sb × 10^5
- so × 10^3 (concentration in 1-octanol) ([2]; 313.15 K): 3.39 mol∙L^−1 (printed as so × 10^3
- xb × 10^7 (mole fraction in buffer) ([2]; 313.15 K): 1.94 mole fraction (printed as xb ×
- xo × 10^4 (mole fraction in 1-octanol) ([2]; 313.15 K): 5.44 mole fraction (printed as xo ×
- T∆trS^o [3]: 7.62 ± 0.19 kcal/mol
- ∆trG^o [3]: -4.57 ± 0.072 kcal/mol
- ∆trH^o [3]: 3.06 ± 0.048 kcal/mol
- ∆trS^o [3]: 106.9 ± 2.9 J·mol^−1·K^−1
- TΔSsolo ([4]; 1-Octanol): -2.49 kcal/mol
- ΔGsolo ([4]; 1-Octanol): 4.16 ± 0.072 kcal/mol
- ΔHsolo ([4]; 1-Octanol): 1.65 ± 0.024 kcal/mol
- ΔSsolo ([4]; 1-Octanol): −35.1 ± 1.8 J·mol^−1·K^−1
- TΔSsolo ([4]; Buffer pH 2.0): -1.36 kcal/mol
- ΔGsolo ([4]; Buffer pH 2.0): 6.36 ± 0.12 kcal/mol
- ΔHsolo ([4]; Buffer pH 2.0): 5 ± 0.048 kcal/mol
- ΔSsolo ([4]; Buffer pH 2.0): −19.1 ± 1.1 J·mol^−1·K^−1
- TΔSsolo ([4]; Buffer pH 7.4): -5.09 kcal/mol
- ΔGsolo ([4]; Buffer pH 7.4): 7.15 ± 0.14 kcal/mol
- ΔHsolo ([4]; Buffer pH 7.4): 2.03 ± 0.024 kcal/mol
- ΔSsolo ([4]; Buffer pH 7.4): −71.4 ± 4.2 J·mol^−1·K^−1
Structure (SMILES): O=c1c2sc(=S)n(-c3ccc(F)cc3)c2ncn1CCCN1CCN(CC(O)(Cn2cncn2)c2ccc(F)cc2F)CC1 (centres unmarked) [II, 6-[3-[4-[2-(2,4-difluorophenyl)-2-hydroxy-3-(1H-1,2,4-triazol-1-yl)propyl]-1-piperazinyl]propyl]-2,3-dihydro-3-(4-fluorophenyl)-2-thioxo-thiazolo[4,5-d]pyrimidin-7(6H)-one]
- advantage over fluconazole ([1]; MIC ratio): 20 fold
- activity relative to fluconazole (C. utilis 84): 2 times
